Experimental findings from EP1228058B1, “BENZOPYRANYL GUANIDINE DERIVATIVES, PROCESS FOR PREPARATION THEREOF, AND PHARMACEUTICAL COMPOSITIONS CONTAINING THEM” (Dongbu Hannong Chemical Co., Ltd., priority 1999, dated 2001) are described below.

For one series, the system named is rat brain homogenate. Put plainly: Inhibition of iron-induced lipid peroxidation (MDA quantification). In kind it is biochemical. The conditions noted are these: 100 uM; FeCl2 400 uM, 37 °C, 30 min. How it is done:
The rat brain was homogenized in a Krebs buffer (15 mM HEPES, 10 mM glucose, 140 mM NaCl, 3.6 mM KCl, 1.5 mM CaCl2, 1.4 mM KH2PO4, 0.7 mM MgCl2, pH 7.4) and the supernatant separated by centrifugation at 12,000 rpm for 10 min. was used for further experiments. FeCl2 was added to a final concentration of 400 uM in the brain homogenate which was then allowed to stand at 37 °C for 30 min. for the facilitation of oxidation. Each of the test compounds was added at a concentration of 100 uM and vehicle was used as a control.
Iron facilitates the oxidation of the brain homogenate to produce malondialdehyde (MDA), a lipid peroxidation product. Thus, the lipid peroxidation was determined by MDA quantification. The inhibitory effect of the test compounds against the lipid peroxidation was evaluated by calculating MDA reduction rate of the test compounds compared with that of the control group.
Typically, the MDA quantification is achieved by reacting samples with 2-thiobarbituric acid (TBA) and measuring the absorbance at 530 nm. However, this method is unsuitable to treat samples on a large scale because of a boiling step. Thus, in this experiment, N-methyl-2-phenylindole was used instead of TBA. […] Bioxytech^R LPO-586 Kit was used for MDA quantification.

Series [1] can be described thus: Acute oral toxicity test in rats. The conditions noted are these: rat, in vivo, single oral dose in 0.5% methyl cellulose, read-out: lethal dose (LD50) for oral administration. Put shortly:
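Six-week-old SPF SD rats, two per group, received a single oral dose of 1 g/kg suspended in 0.5% methyl cellulose (10 ml/kg). Survivors at the end of observation underwent haematology, serum chemistry, necropsy and histopathology of vital organs with macroscopic lesions.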

The test system of series [2] is cerebral cortical neurons. The experiment in a line: Protective activity for neurons against iron-induced death (LDH release). In kind it is cell-based. As to conditions: Rattus norvegicus, Cortical neurone, FeSO4 50 uM, 24 hours, LDH reduction, read-out: % Protection. On the procedure:
From the brains of 17-18 day-old rat embryos, cerebral cortical neurons were isolated and then, cultured at 37 °C for 7-9 days in a 5% CO2 incubator. The cortical cell cultures were washed twice with a minimum essential medium (MEM) to reduce the serum concentration to 0.2 % and pre-treated for 30 min with 10 uM and 30 uM of each of test compounds. For the experiments, the test compounds were dissolved in DMSO and diluted in a medium. At this time, the final concentration of DMSO was not allowed to exceed 0.2 %. For a control group, only vehicle was applied.
After the pre-treatment with test compounds or vehicle, FeSO4 was added to a final concentration of 50 uM, and the cultures were maintained for 24 hours in a CO2 incubator. During incubation, lactate dehydrogenase (LDH) was released into the medium upon neuronal death by the oxidative toxicity of iron. The extent of neuronal damage was assessed by measuring the amount of LDH secreted into the media. The protective effect of the compounds of interest on neurons was evaluated by calculating the LDH reduction rate of treatment group compared with that of the control group.

The next series has as its system RAW 264.7 cells. Put plainly: Inhibition of LPS-induced NO production (Griess reagent). It is filed as cell-based, murine. The conditions noted are these: Mus musculus, 24 hours; for inhibition at 33 µM: RAW264.7, 33 uM; for inhibition at 100 µM: RAW264.7, 100 uM. How it is done: Using RPMI1640 media supplemented with 10% fetal bovine serum (FBS), RAW 264.7 cells (obtained from American Type Culture Collection), a murine macrophage cell line, were cultured at 37 °C in a 5% CO2 incubator. The RAW264.7 cells were harvested and cell density was adjusted to 5x10^5/ml with a RPMI medium supplemented with 0.5% FBS and plated at 5x10^4 cells/well to 96-well plates, which were then cultured for 20 hr in a CO2 incubator. After removal of the media, the cells were pre-treated for 1 hour with fresh media containing 33 uM and 100 uM of test compounds. The test compounds were dissolved in DMSO and diluted to respective concentration in the media. In order to minimize DMSO effect on the nitric oxide formation by the RAW264.7 cells in the wells, the media were allowed to contain DMSO at a concentration of 0.1 % or less.
After completion of one hour pre-treatment, lipopolysaccharide (LPS, E. coli serotype 055:B5) was added to activate the cells, which were, then, maintained for 24 hours in a CO2 incubator. As a result of the activation of RAW264.7 cells with LPS, NO was formed. The NO released into the media was in a form of nitrite NO2^- and quantitatively measured using the Griess reagent. A control was treated only with vehicle instead of test compounds.
The inhibitory effects of the test compounds against NO production were determined as the reduction of NO quantity compared with that of the control group.
Background: The Griess reaction detects nitrite, a stable product of nitric oxide.

For the compound `COC(OC)[C@@]1(C)Oc2ccc([N+](=O)[O-])cc2[C@H](NC(=NC#N)NCc2ccccc2)[C@H]1O` [Example 24, (2S, 3R, 4S)-N''-cyano-N-(6-nitro-3,4-dihydro-3-hydroxy-2-methyl-2-dimethoxymethyl-2H-benzopyran-4-yl)-N'-benzylguanidine], in the series on rat brain homogenate, the % Inhibition (usually how much of the control response was suppressed) was 12%. In series [1], the LD50 is over 1000 mg/kg. In series [2], the inhibition at 10 µM was found to be 29% and the inhibition at 30 µM was determined as 47%. In the series on RAW 264.7 cells, this compound yielded an inhibition at 33 µM of 16% and an inhibition at 100 µM of 48%.

Take `COC(OC)[C@@]1(C)Oc2ccc([N+](=O)[O-])cc2[C@@H](NC(=NC#N)NCc2ccccc2)[C@@H]1O` [Example 25, (2S, 3S, 4R)-N''-cyano-N-(6-nitro-3,4-dihydro-3-hydroxy-2-methyl-2-dimethoxymethyl-2H-benzopyran-4-yl)-N'-benzylguanidine]: in the series with rat brain homogenate, the “% Inhibition” value was 2%. Moreover, the LD50 in series [1] was over 1000 mg/kg. In addition, in series [2], the inhibition at 30 µM turned out to be 69%. Also, in the series on RAW 264.7 cells, the inhibition at 33 µM turned out to be 39% and the inhibition at 100 µM came to 54%.

Turning to `COC(OC)[C@@]1(C)Oc2ccc([N+](=O)[O-])cc2[C@H](NC(=NC#N)Nc2ccccc2Cl)[C@H]1O` [Example 32, (2S, 3R, 4S)-N''-cyano-N-(6-nitro-3,4-dihydro-3-hydroxy-2-methyl-2-dimethoxymethyl-2H-benzopyran-4-yl)-N'-(2-chlorophenyl)guanidine], in the series on rat brain homogenate, the “% Inhibition” value was determined as 86%. The LD50 in series [1] was over 1000 mg/kg. The compound also returned an inhibition at 100 µM in the series with RAW 264.7 cells of 83%.

In the case of `COC(OC)[C@@]1(C)Oc2ccc([N+](=O)[O-])cc2[C@@H](NC(=NC#N)NCc2ccccc2)[C@@H]1OC(C)=O` [Example 38, (2S, 3S, 4R)-N''-cyano-N-(6-nitro-3,4-dihydro-3-acetoxy-2-methyl-2-dimethoxymethyl-2H-benzopyran-4-yl)-N'-benzylguanidine], in the series on rat brain homogenate, the “% Inhibition” value is reported as 4%. In addition, the LD50 in series [1] is over 1000 mg/kg. In series [2], the inhibition at 10 µM was 56% and the inhibition at 30 µM was determined as 78%. For the same compound, in the series with RAW 264.7 cells, the inhibition at 33 µM stood at 56% and the inhibition at 100 µM worked out at 85%.

In the case of `COC(OC)[C@@]1(C)Oc2ccc(N)cc2[C@@H](NC(=NC#N)NCc2ccccc2)[C@@H]1O` [Example 40, (2S, 3S, 4R)-N''-cyano-N-(6 - amino-3,4-dihydro-3-hydroxy-2-methyl-2-dimethoxymethyl-2H-benzopyran-4-yl)-N'-benzylguanidine], the “% Inhibition” value in the series on rat brain homogenate was 79%. Besides, the LD50 in series [1] is over 1000 mg/kg. Moreover, in series [2], the inhibition at 10 µM amounted to 45% and the inhibition at 30 µM stood at 97%. The compound also gave an inhibition at 100 µM in the series on RAW 264.7 cells of 26%.
